Converted amounts (≈) assume the structure as drawn. Like-named read-outs stand apart in the source and are kept apart here.
Key:
[1] = test system: Corynebacterium michiganence PV michiganene NIAES 1044; assay type: cell-based; details: Corynebacterium michiganence NIAES 1044 (bacterial canker of tomatoes)
Experimental: (§1) The minimum growth inhibitory concentration (MIC) values of bacterial substance UFC-N11 to various kinds of bacteria determined according to the conventional method were measured in the conventional manner.

[2] = test system: Ervinia carotovara subsp. carotovora NIAES 1393; assay type: cell-based; details: Ervinia carotovara NIAES 1393 (black leg of potatoes)
Experimental: as §1

[3] = test system: Escherichia coli NIHJ JC-2; assay type: cell-based
Experimental: as §1

Pseudomonas aeruginosa = assay type: cell-based
Experimental: as §1

[4] = test system: Pseudomonas syringae PV tabaci NIAES 1075; assay type: cell-based
Experimental: as §1

[5] = test system: Staphylococcus aureus 209-P; assay type: cell-based
Experimental: as §1

[6] = test system: Xandomonas campestris FV Pruni 7855SMR; assay type: cell-based; details: Xandomonas campestris FV Pruni 7855SMR (bacterial spot of peach)
Experimental: as §1

[7] = test system: Xandomonas campestris PV campestris NIAES 1152; assay type: cell-based; details: Xandomonas campestris PV campestris NIAES 1152 (black rot)
Experimental: as §1

[8] = Preservability of potato salad (Test Example 6); details: for Living bacteria: at end of storage life
Experimental: Bacterial substance UFC-N11 was added to potato (300 g), carrot (50 g), sliced onion (60 g), sliced cucumber (80 g), salad oil (15 g), vinegar (12. 5 g), NaCl (2 g), pepper (0.05 g) and mayonnaise (100 g) (total: ca 620 g) to prepare potato salad. Test samples (20 g/group) were packed in 200 ml mayonnaise bottles, sealed and examined for the preservability at 30° C. Potato and carrot were boiled and cut into appropriate size before use. The period until emission of a putrid smell is defined as effective storage life. General living bacterial number of samples at that time was also measured.

[9] = test system: Xanthomonas campestris PV citri; details: for Prevention: sprayed 24 hours after inoculation, 14 days

For `CC=CC=CC=CC(=O)NC(CC(=O)NC(C(=O)C1C(=O)NC(=O)C1C)C(C)C)c1ccccc1` (stereo not shown) [UFC-N11], which MIC [1] is on record?
The MIC was 6.25 µg/mL (≈ 13 µM).

And the MIC [2]?
The MIC was 6.25 µg/mL (≈ 13 µM).

And the MIC [3]?
The MIC was 1.56 µg/mL (≈ 3.25 µM).

And the MIC (Pseudomonas aeruginosa)?
The MIC was 50 µg/mL (≈ 104 µM).

And the MIC [4]?
Its MIC is 12.5 µg/mL (≈ 26.1 µM).

And the MIC [5]?
Its MIC is 1.56 µg/mL (≈ 3.25 µM).

What about the MIC [6] of the same molecule?
Its MIC is 0.1 µg/mL (≈ 0.209 µM).

And the MIC [7]?
The MIC was 0.1 µg/mL (≈ 0.209 µM).

What about the Living bacteria ([8]; 0.05 ppm) of the same molecule?
The Living bacteria was 5.9e+06 g⁻¹.

And the Storage life ([8]; 0.05 ppm, pH 5.14, 30° C.)?
The Storage life was 24 h.

What about the Living bacteria ([8]; 0.5 ppm) of the same molecule?
Its Living bacteria is 2.8e+07 g⁻¹.

What about the Storage life ([8]; 0.5 ppm, pH 5.15, 30° C.) of the same molecule?
The Storage life was 30 h.

And the Living bacteria ([8]; 5.0 ppm)?
Its Living bacteria is 8.1e+06 g⁻¹.

What about the Storage life ([8]; 5.0 ppm, pH 5.15, 30° C.) of the same molecule?
The Storage life was 43 h.

And the Living bacteria ([8]; 50 ppm)?
Its Living bacteria is 5.5e+07 g⁻¹.

And the Storage life ([8]; 50 ppm, pH 5.16, 30° C.)?
The Storage life was 56 h.

What about the Prevention ([9]; 20 ppm) of the same molecule?
Its Prevention is 26.70%.

And the Prevention ([9]; 40 ppm)?
The Prevention was 33.9%.

What about the Damage ([9]; in vivo) of the same molecule?
Its Damage is “nil”.
